Counter-ions that a name gives are not always drawn.

Experimental findings from patent publication US20070154549A1, “Multiparticulate formulations for oral delivery” (VECTURA LTD, priority 2003, published 2007) are described below.

The nature of this data set: Dissolution studies / drug release. It counts as physicochemical. The settings on record: levels of hydrophobic melt binder of up to 20%.

`CN(C)CCC(c1ccc(Cl)cc1)c1ccccn1` (stereo not shown) [chlorpheniramine maleate]: the drug release result was “do not delay drug release”.
